Experiments:
[1] = system: rapid delayed rectifier potassium current (IKr); test: Whole-cell patch-clamp, rapid delayed rectifier potassium current in dog ventricular myocytes; format: cell-based; settings: Canis lupus familiaris, Ventricular myocyte, tail current, dog left ventricular myocytes
Protocol: The effects of SZV-2649 on transmemrane ionic currents were investigated in dog cardiac myocytes after a 5-minute superfusion of the drug.
The rapid delayed rectifier potassium current (IKr) was elicited from the holding potential of -80 mV following a prepulse to -40 mV. IKr tail current was measured at a post pulse to -40 mV after 1 s long test pulses from − 30 mV to 50 mV using 10 mV increments at the pulsing cycle length of 20 s (see inset of Fig. 4A). The effect of SZV-2649 was investigated at 1 and 5 µM concentrations.
Ventricular myocytes from Beagle dogs were enzymatically dissociated as described in detail previously. […]
The membrane currents were recorded with Axopatch-200B amplifiers (Molecular Devices, Sunnyvale, CA, USA) by means of the whole-cell configuration of the patch-clamp technique. […]
The inward rectifier (IK1), the transient outward (Ito), the rapid (IKr) and the slow (IKs) delayed rectifier potassium currents were recorded in HEPES-buffered Tyrode’s solution. […] When IKr was recorded, IKs was inhibited by using the selective IKs blocker HMR-1556 (0.5 µM). […]

[2] = system: dog right ventricular muscle preparations; test: Conventional microelectrode action potential recording, dog ventricular muscle; settings: for APA / APD50 / APD90 / RP / Vmax: ventricular muscle, CL = 1000 ms, n = 8
Protocol: The effects of SZV-2649 on action potentials were studied in dog ventricular, atrial and Purkinje fiber preparations.
The Class I antiarrhythmic property of SZV-2649 was further studied with different frequency-dependent protocols. […]. Action potentials were recorded in cardiac ventricular trabeculae and papillary muscle preparations obtained from the right ventricles of Beagle dogs (10–15 kg) of either sex using the conventional microelectrode technique. Dogs were sacrificed by iv. sedation with xylazine (1 mg/kg), followed by i.v. administration of 50 mg/kg pentobarbital. After the cornea reflex disapeared the chest was opened, and the heart was rapidly removed. The heart was immediately rinsed in oxygenated modified Locke’s solution containing (in mM): NaCl 128.3, KCl 4, CaCl2 1.8, MgCl2 0.42, NaHCO3 21.4, and glucose 10. The pH of this solution was set between 7.35 and 7.4 when gassed with the mixture of 95% O2 and 5% CO2 at 37 °C.
Isolated papillary muscle or atrial trabecula and Purkinje fiber preparations were obtained and prepared from the right ventricle and were individually mounted in a tissue chamber with the volume of 50 ml. Each preparation was initially stimulated through a pair of platinum electrodes in contact with the preparation using rectangular current pulses of 2 ms duration. These stimuli were delivered at a constant cycle length of 1000 ms for at least 60 min allowing the preparation to equilibrate before the measurements were initiated. Transmembrane potentials were recorded using conventional glass microelectrodes, filled with 3 M KCl and having tip resistances of 5–20 MΩ, connected to the input of a high impedance electrometer (Experimetria, type 309, Budapest, Hungary) which was coupled to a dual beam oscilloscope. […] Stimulation with a constant cycle length of 1000 ms was applied in the course of all experiments. Attempts were made to maintain the same impalement throughout each experiment. In case an impalement became dislodged, adjustment was attempted, and if the action potential characteristics of the re-established impalement deviated by less than 5% from the previous measurement, the experiment continued[64]–[67]. All measurements were carried out at 37 °C.

## CC(N)COc1c(I)cc(C#N)cc1I.Cl (centres unmarked) [SZV-2649, 4-(2-aminopropoxy)-3,5-diiodobenzonitrile hydrochloride]
[1]; 1 µM
  inhibition at 1 µM: ~23%
[1]; 5 µM
  inhibition at 5 µM: ~75%
[2]; 5 µM
  APA: 118.3 ± 1.9 mV
  APD50: 212.2 ± 5.7 ms
  APD90: 251.6 ± 4.0 ms
  RP: −84.5 ± 2.0 mV
  Vmax: 227.4 ± 24.2 V/s
[2]; 10 µM, dog ventricular muscle, premature stimulation from 1 Hz basic frequency
  Recovery time constant of Vmax (offset kinetics of Vmax block, τoffset): 590 ms
[2]; 10 µM
  APA: 117.1 ± 2.1 mV
  APD50: 213.4 ± 5.8 ms
  APD90: 252.8 ± 5.0 ms
  RP: −86.1 ± 2.0 mV
  Vmax: 203.2 ± 24.3 V/s
[2]; […]
  Vmax: 228.3 ± 23.5 V/s

From paper PMC11455950, “Effects of SZV-2649, a new multiple ion channel inhibitor mexiletine analogue” (Scientific Reports, 2024)
